The results in this text go back to US11292791B2 (priority 2017, dated 2022).

The experiment deals with BRD4 (Homo sapiens (Human), UniProt O60885). The note with it: read-out: BRD4 IC50 (μM gmean).
As a reminder, the IC50 is the concentration that gives 50% inhibition. Take `COC(=O)N1c2ccc3c(nc(Cc4ccccc4)n3[C@H]3CC[C@@H](c4nnn[nH]4)CC3)c2CC[C@@H]1C` [Example 284]: the IC50 is 1 to 1000 µM.

As to `COC(=O)N1c2ccc3c(nc(Cc4ccccc4)n3CC(=O)O)c2CC[C@@H]1C` [Example 285, (S)-2-(2-benzyl-6-(methoxycarbonyl)-7-methyl-6,7,8,9-tetrahydro-3H-imidazo[4,5-f]quinolin-3-yl)acetic Acid], the IC50 fell in the range of 1 to 1000 µM.

As to `COC(=O)N1c2ccc3c(nc(Cc4ccccc4)n3CC(N)=O)c2CC[C@@H]1C` [Example 286, methyl (S)-3-(2-amino-2-oxoethyl)-2-benzyl-7-methyl-3,7,8,9-tetrahydro-6H-imidazo[4,5-f]quinoline-6-carboxylate], the IC50 was 1 to 1000 µM.

As for `COC(=O)N1c2ccc3c(nc(Cc4ccccc4)n3CCO)c2CC[C@@H]1C` [Example 287, methyl (S)-2-benzyl-3-(2-hydroxyethyl)-7-methyl-3,7,8,9-tetrahydro-6H-imidazo[4,5-f]quinoline-6-carboxylate], the IC50 fell in the range of 1 to 1000 µM.

Regarding `COC(=O)N1c2ccc3c(nc(CCn4cccn4)n3CCNCc3cnco3)c2CC[C@@H]1C` [Example 292], the half-inhibitory concentration (IC50) fell in the range of 1 to 1000 µM.

On to `COC(=O)N1c2ccc3c(nc(CCn4cccn4)n3CCNCc3cnn(C)c3)c2CC[C@@H]1C` [Example 293], for which the IC50 fell in the range of 1 to 1000 µM.

On to `COC(=O)N1c2ccc3c(nc(CCn4cccn4)n3CCNCc3cccnc3)c2CC[C@@H]1C` [Example 294], for which the IC50 lay in the range of 1 to 1000 µM.

Consider `COC(=O)N1c2ccc3c(nc(CCn4cccn4)n3CCN(C)CCO)c2CC[C@@H]1C` [Example 296], for which the IC50 was in the range of 1 to 1000 µM.

Take `COC(=O)N1c2ccc3c(nc(CCn4cccn4)n3CCN(C)CC(=O)N(C)C)c2CC[C@@H]1C` [Example 297]: the IC50 is 1 to 1000 µM.

For `COC(=O)N1c2ccc3c(nc(CCn4cccn4)n3CCN3CCC(O)CC3)c2CC[C@@H]1C` [Example 298], the IC50 was in the range of 1 to 1000 µM.

As to `COC(=O)N1c2ccc3c(nc(CCn4cccn4)n3CCN3CCC(CO)CC3)c2CC[C@@H]1C` [Example 299], the IC50 lay within 1 to 1000 µM.

On to `COC(=O)N1c2ccc3c(nc(CCn4cccn4)n3CCNCC(=O)N3CCCC3)c2CC[C@@H]1C` [Example 300], for which the IC50 lay within 1 to 1000 µM.

On to `COC(=O)N1c2ccc3c(nc(CCn4cccn4)n3CCN(C)C3CCOCC3)c2CC[C@@H]1C` [Example 301], for which the IC50 is 1 to 1000 µM.

For `COC(=O)N1c2ccc3c(nc(CCn4cccn4)n3CCN(C)[C@H]3CCOC3)c2CC[C@@H]1C` [Example 302], the IC50 fell in the range of 1 to 1000 µM.

Regarding `COC(=O)N1c2ccc3c(nc(CCn4cccn4)n3CCN3CC[C@H](C(N)=O)C3)c2CC[C@@H]1C` [Example 303], the IC50 was 1 to 1000 µM.

Turning to `COC(=O)N1c2ccc3c(nc(CCn4cccn4)n3CCN(C)CC(C)(C)O)c2CC[C@@H]1C` [Example 304], the IC50 lay within 1 to 1000 µM.

Turning to `COC(=O)N1c2ccc3c(nc(CCn4cccn4)n3CCNC3COC3)c2CC[C@@H]1C` [Example 305], the IC50 lay in the range of 1 to 1000 µM.

As for `COC(=O)N1c2ccc3c(nc(CCn4cccn4)n3CCNCCC#N)c2CC[C@@H]1C` [Example 306], the half-inhibitory concentration (IC50) was 1 to 1000 µM.

As to `COC(=O)N1c2ccc3c(nc(CCn4cccn4)n3CCNCCN3CCNC3=O)c2CC[C@@H]1C` [Example 307], the IC50 fell in the range of 1 to 1000 µM.

Regarding `COC(=O)N1c2ccc3c(nc(CCn4cccn4)n3CCN3CCC(C#N)CC3)c2CC[C@@H]1C` [Example 308], the IC50 fell in the range of 1 to 1000 µM.

Regarding `COC(=O)N1c2ccc3c(nc(CCn4cccn4)n3CCN3CC[C@@H](NC(C)=O)C3)c2CC[C@@H]1C` [Example 309], the half-inhibitory concentration (IC50) lay within 1 to 1000 µM.

Take `COC(=O)N1c2ccc3c(nc(CCn4cccn4)n3CCN3CC[C@H](NC(C)=O)C3)c2CC[C@@H]1C` [Example 310]: the IC50 was 1 to 1000 µM.

As for `COC(=O)N1c2ccc3c(nc(CCn4cccn4)n3CCN3CCN(C(C)C)CC3)c2CC[C@@H]1C` [Example 311], the IC50 lay in the range of 1 to 1000 µM.

Take `COC(=O)N1c2ccc3c(nc(CCn4cccn4)n3CCN3CCN(C4CC4)CC3)c2CC[C@@H]1C` [Example 312]: the IC50 was 1 to 1000 µM.

As to `COC(=O)N1c2ccc3c(nc(CCn4cccn4)n3CCN3CCN(CCO)CC3)c2CC[C@@H]1C` [Example 313], the IC50 was 1 to 1000 µM.

Regarding `COC(=O)N1c2ccc3c(nc(CCn4ccccc4=O)n3CCNCc3ccncn3)c2CC[C@@H]1C` [Example 314], the IC50 was in the range of 1 to 1000 µM.

For `COC(=O)N1c2ccc3c(nc(CCn4ccccc4=O)n3CCNCc3cnn(C)c3)c2CC[C@@H]1C` [Example 315], the IC50 fell in the range of 1 to 1000 µM.

`COC(=O)N1c2ccc3c(nc(CCn4ccccc4=O)n3CCNCc3ccn(C)n3)c2CC[C@@H]1C` [Example 316]: the IC50 was 1 to 1000 µM.

Consider `COC(=O)N1c2ccc3c(nc(CCn4ccccc4=O)n3CCNCc3ncnn3C)c2CC[C@@H]1C` [Example 317], for which the IC50 was 1 to 1000 µM.

For `COC(=O)N1c2ccc3c(nc(CCn4ccccc4=O)n3CCNC[C@H]3CCCO3)c2CC[C@@H]1C` [Example 319], the IC50 fell in the range of 1 to 1000 µM.

Turning to `COC(=O)N1c2ccc3c(nc(CCn4ccccc4=O)n3CCNCC(=O)N3CCCC3)c2CC[C@@H]1C` [Example 324], the half-inhibitory concentration (IC50) was 1 to 1000 µM.

On to `COC(=O)N1c2ccc3c(nc(CCn4ccccc4=O)n3CCN(C)C3CCOCC3)c2CC[C@@H]1C` [Example 325], for which the IC50 fell in the range of 1 to 1000 µM.

Turning to `COC(=O)N1c2ccc3c(nc(CCn4ccccc4=O)n3CCN(C)[C@H]3CCOC3)c2CC[C@@H]1C` [Example 326], the half-maximal inhibitory concentration (IC50) is 1 to 1000 µM.

Regarding `COC(=O)N1c2ccc3c(nc(CCn4ccccc4=O)n3CCN3CC[C@H](C(N)=O)C3)c2CC[C@@H]1C` [Example 327], the concentration for half-maximal inhibition (IC50) lay in the range of 1 to 1000 µM.

As to `COC(=O)N1c2ccc3c(nc(CCn4cccn4)n3CC(=O)N3CC[C@H](NC(C)=O)C3)c2CC[C@@H]1C` [Example 335, methyl (S)-2-(2-(1H-pyrazol-1-yl)ethyl)-3-(2-((S)-3-acetamidopyrrolidin-1-yl)-2-oxoethyl)-7-methyl-3,7,8,9-tetrahydro-6H-imidazo[4,5-f]quinoline-6-carboxylate], the IC50 lay in the range of 1 to 1000 µM.

As for `COC(=O)N1c2ccc3c(nc(CCn4cccn4)n3CC(=O)NCc3ccncn3)c2CC[C@@H]1C` [Example 336], the IC50 was in the range of 1 to 1000 µM.

With `COC(=O)N1c2ccc3c(nc(CCn4cccn4)n3CC(=O)NCc3ncccn3)c2CC[C@@H]1C` [Example 337], the IC50 was in the range of 1 to 1000 µM.

With `COC(=O)N1c2ccc3c(nc(CCn4cccn4)n3CC(=O)NCCc3ccccn3)c2CC[C@@H]1C` [Example 338], the IC50 was 1 to 1000 µM.

Regarding `COC(=O)N1c2ccc3c(nc(CCn4cccn4)n3CC(=O)NCc3ccnc(O)c3)c2CC[C@@H]1C` [Example 339], the half-maximal inhibitory concentration (IC50) lay in the range of 1 to 1000 µM.

`COC(=O)N1c2ccc3c(nc(CCn4cccn4)n3CC(=O)NCc3ncco3)c2CC[C@@H]1C` [Example 340]: the IC50 fell in the range of 1 to 1000 µM.

On to `COC(=O)N1c2ccc3c(nc(CCn4cccn4)n3CC(=O)NCc3cnco3)c2CC[C@@H]1C` [Example 342], for which the IC50 was 1 to 1000 µM.

On to `COC(=O)N1c2ccc3c(nc(CCn4cccn4)n3CC(=O)NCc3nnc(C)n3C)c2CC[C@@H]1C` [Example 343], for which the IC50 fell in the range of 1 to 1000 µM.

In the case of `COC(=O)N1c2ccc3c(nc(CCn4cccn4)n3CC(=O)NCc3cnn(C)c3)c2CC[C@@H]1C` [Example 344], the IC50 is 1 to 1000 µM.

Consider `COC(=O)N1c2ccc3c(nc(CCn4cccn4)n3CC(=O)NCc3ccn(C)n3)c2CC[C@@H]1C` [Example 345], for which the IC50 was in the range of 1 to 1000 µM.

For `COC(=O)N1c2ccc3c(nc(CCn4cccn4)n3CC(=O)NCc3cccnc3)c2CC[C@@H]1C` [Example 346], the 50% inhibitory concentration (IC50) was in the range of 1 to 1000 µM.

Turning to `COC(=O)N1c2ccc3c(nc(CCn4cccn4)n3CC(=O)NC[C@H]3CCCO3)c2CC[C@@H]1C` [Example 347], the IC50 lay in the range of 1 to 1000 µM.

With `COC(=O)N1c2ccc3c(nc(CCn4cccn4)n3CC(=O)N[C@H]3CC[C@H](CO)CC3)c2CC[C@@H]1C` [Example 348], the IC50 is 1 to 1000 µM.

Turning to `COC(=O)N1c2ccc3c(nc(CCn4cccn4)n3CC(=O)N[C@H](C)CO)c2CC[C@@H]1C` [Example 349], the IC50 fell in the range of 1 to 1000 µM.

As to `COC(=O)N1c2ccc3c(nc(CCn4cccn4)n3CC(=O)N(C)CCO)c2CC[C@@H]1C` [Example 350], the half-inhibitory concentration (IC50) was in the range of 1 to 1000 µM.

For `COC(=O)N1c2ccc3c(nc(CCn4cccn4)n3CC(=O)N(C)CC(=O)N(C)C)c2CC[C@@H]1C` [Example 351], the IC50 was 1 to 1000 µM.

With `COC(=O)N1c2ccc3c(nc(CCn4cccn4)n3CC(=O)N3CCC(O)CC3)c2CC[C@@H]1C` [Example 352], the half-maximal inhibitory concentration (IC50) lay in the range of 1 to 1000 µM.

`COC(=O)N1c2ccc3c(nc(CCn4cccn4)n3CC(=O)N3CCC(CO)CC3)c2CC[C@@H]1C` [Example 353]: the IC50 is 1 to 1000 µM.

In the case of `COC(=O)N1c2ccc3c(nc(CCn4cccn4)n3CC(=O)NCC(=O)N(C)C)c2CC[C@@H]1C` [Example 354], the IC50 was in the range of 1 to 1000 µM.

For the molecule `COC(=O)N1c2ccc3c(nc(CCn4cccn4)n3CC(=O)N(C)C3CCOCC3)c2CC[C@@H]1C` [Example 356], the IC50 lay within 1 to 1000 µM.

Turning to `COC(=O)N1c2ccc3c(nc(CCn4cccn4)n3CC(=O)NCC3CCOCC3)c2CC[C@@H]1C` [Example 357], the IC50 lay within 1 to 1000 µM.

On to `COC(=O)N1c2ccc3c(nc(CCn4cccn4)n3CC(=O)NC3CCOCC3)c2CC[C@@H]1C` [Example 358], for which the IC50 lay in the range of 1 to 1000 µM.

Take `COC(=O)N1c2ccc3c(nc(CCn4cccn4)n3CC(=O)N(C)[C@H]3CCOC3)c2CC[C@@H]1C` [Example 359]: the IC50 was in the range of 1 to 1000 µM.

Turning to `COC(=O)N1c2ccc3c(nc(CCn4cccn4)n3CC(=O)N3CC[C@H](C(N)=O)C3)c2CC[C@@H]1C` [Example 360], the IC50 is 1 to 1000 µM.

For the molecule `COC(=O)N1c2ccc3c(nc(CCn4cccn4)n3CC(=O)N(C)CC(C)(C)O)c2CC[C@@H]1C` [Example 361], the IC50 is 1 to 1000 µM.

Regarding `COC(=O)N1c2ccc3c(nc(CCn4cccn4)n3CC(=O)NCC3(O)CCC3)c2CC[C@@H]1C` [Example 362], the IC50 was in the range of 1 to 1000 µM.

`COC(=O)N1c2ccc3c(nc(CCn4cccn4)n3CC(=O)NCc3cc(C)no3)c2CC[C@@H]1C` [Example 363]: the IC50 lay within 1 to 1000 µM.

Take `COC(=O)N1c2ccc3c(nc(CCn4cccn4)n3CC(=O)NCC3(C)COC3)c2CC[C@@H]1C` [Example 364]: the half-maximal inhibitory concentration (IC50) lay in the range of 1 to 1000 µM.

On to `COC(=O)N1c2ccc3c(nc(CCn4cccn4)n3CC(=O)NC3COC3)c2CC[C@@H]1C` [Example 365], for which the IC50 is 1 to 1000 µM.
